Laboratory results reported in PMC9870890 (Nature Communications, 2023).
Read-outs that look alike come from different tables or passages of the source.

Key:
[1] = biological target: T1, M2R (Homo sapiens, UniProt P08172); experiment: cell-based; settings: for Emax: HEK-293T
T1 sequence (P08172 1-466): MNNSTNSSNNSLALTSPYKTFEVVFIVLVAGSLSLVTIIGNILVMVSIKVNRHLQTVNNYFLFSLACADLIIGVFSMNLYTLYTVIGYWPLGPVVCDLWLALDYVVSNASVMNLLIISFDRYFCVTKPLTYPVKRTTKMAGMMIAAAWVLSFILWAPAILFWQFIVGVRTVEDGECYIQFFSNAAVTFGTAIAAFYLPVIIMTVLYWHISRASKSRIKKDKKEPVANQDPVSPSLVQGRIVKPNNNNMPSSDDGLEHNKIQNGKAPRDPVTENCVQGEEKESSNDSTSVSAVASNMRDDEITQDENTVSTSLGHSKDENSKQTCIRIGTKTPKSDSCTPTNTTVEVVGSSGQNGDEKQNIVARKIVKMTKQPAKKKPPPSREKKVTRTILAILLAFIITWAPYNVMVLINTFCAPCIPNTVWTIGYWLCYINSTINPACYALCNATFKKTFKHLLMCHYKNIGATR
Protocol: Measurement of G-protein mediated activation of M2R was performed applying the IP-One HTRF® accumulation assay (Cisbio, Codolet, France) as previously described protocols[29],[73]. In brief, HEK 293T cells were co-transfected with the cDNA coding for M2R and the hybrid G-protein Gαqi (Gαq protein with the last five amino acids at the C-terminus replaced by the corresponding sequence of Gαi; gift from The J. David Gladstone Institutes, San Francisco, CA) and transferred into 384-well micro plates. […] Accumulation of second messenger was stopped by addition of the detection reagents (IP1-d2 conjugate and Anti-IP1cryptate TB conjugate). […] Normalized concentration-response curves from four to eight experiments each done in duplicates were analyzed using the algorithms for four parameter non-linear regression implemented in PRISM 8.0 (GraphPad Software, USA) to derive EC50 and Emax values.

[2] = biological target: T1, M2R; experiment: cell-based; set-up: expressed in transfected cells; host or cells: HEK 293T; settings: for Emax: HEK-293T
Protocol: Determination of β-arrestin-2 recruitment was performed applying the PathHunter assay (DiscoverX, Birmingham, U.K.) which is based on fragment complementation of β-galactosidase as described. In detail, HEK293T cells were transfected with the flag-tagged M2 receptor carrying the PKA fragment for enzyme complementation and transferred into 384-well micro plates. […] Determination of chemoluminescence was done with a Clariostar plate reader (BMG, Ortenberg, Germany). […] Normalized curves from three to five individual experiments each done in duplicate were analyzed by non-linear regression applying the algorithms in Prism 8.0 (GraphPad, San Diego, CA) to get dose-response curves representing average EC50 and Emax value.

Structure (SMILES): C[N+](C)(C)CC#CCOC1=NOCC1 [Ixo, iperoxo]
- EC50 [1]: 310 ± 43 pM
- Emax ([1]; read-out: Emax in % of acetylcholin, IP accumulation by iperoxo, agonist (absence of LY2119620)): 115%
- Emax ([1]; read-out: Emax in % of acetylcholin, IP accumulation by iperoxo, agonist + 0.1 µM LY): 111%
- Emax ([1]; read-out: Emax in % of acetylcholin, IP accumulation by iperoxo, agonist + 1 µM LY): 105%
- Emax ([1]; read-out: Emax in % of acetylcholin, IP accumulation by iperoxo, agonist + 3 µM LY): 104%
- Emax ([1]; read-out: Emax in % of acetylcholin, IP accumulation by iperoxo, agonist + 10 µM LY): 104%
- Emax ([1]; read-out: Emax in % of acetylcholin, IP accumulation by iperoxo, agonist + 100 µM LY): 102%
- Emax ([1]; read-out: IP accumulation as % max effect of acetylcholin, iperoxo log [M] 3-8, 1µM LY2119620): 103%
- Emax ([1]; read-out: IP accumulation as % max effect of acetylcholin, iperoxo log [M] 3-8, 3µM LY2119620): 102%
- Emax ([1]; read-out: IP accumulation as % max effect of acetylcholin, iperoxo log [M] 3-8, 10µM LY2119620): 99.3%
- Emax ([1]; read-out: IP accumulation as % max effect of acetylcholin, iperoxo log [M] 3-8, 100µM LY2119620): 98.3%
- Emax ([1]; read-out: IP accumulation as % max effect of acetylcholin, iperoxo log [M] 3-8, no LY2119620): 111%
- Emax ([1]; read-out: IP accumulation as % max effect of acetylcholin, iperoxo log [M] 3-9, 0.1µM LY2119620): 122%
- Emax ([1]; read-out: IP accumulation as % max effect of acetylcholin, iperoxo log [M] 3-9, 1µM LY2119620): 104%
- Emax ([1]; read-out: IP accumulation as % max effect of acetylcholin, iperoxo log [M] 3-9, 3µM LY2119620): 106%
- Emax ([1]; read-out: IP accumulation as % max effect of acetylcholin, iperoxo log [M] 3-9, 10µM LY2119620): 98.3%
- Emax ([1]; read-out: IP accumulation as % max effect of acetylcholin, iperoxo log [M] 3-9, 30µM LY2119620): 87.5%
- Emax ([1]; read-out: IP accumulation as % max effect of acetylcholin, iperoxo log [M] 3-9, 100µM LY2119620): 106%
- Emax ([1]; read-out: IP accumulation as % max effect of acetylcholin, iperoxo log [M] 3-9, no LY2119620): 113%
- Emax ([1]; read-out: IP accumulation as % max effect of acetylcholin, iperoxo log [M] 3-10, 0.1µM LY2119620): 85.3%
- Emax ([1]; read-out: IP accumulation as % max effect of acetylcholin, iperoxo log [M] 3-10, 1µM LY2119620): 100%
- Emax ([1]; read-out: IP accumulation as % max effect of acetylcholin, iperoxo log [M] 3-10, 3µM LY2119620): 104%
- Emax ([1]; read-out: IP accumulation as % max effect of acetylcholin, iperoxo log [M] 3-10, 10µM LY2119620): 106%
- Emax ([1]; read-out: IP accumulation as % max effect of acetylcholin, iperoxo log [M] 3-10, 100µM LY2119620): 104%
- Emax ([1]; read-out: IP accumulation as % max effect of acetylcholin, iperoxo log [M] 3-11, 0.1µM LY2119620): 26.4%
- Emax ([1]; read-out: IP accumulation as % max effect of acetylcholin, iperoxo log [M] 3-11, 10µM LY2119620): 94.8%
- Emax ([1]; read-out: IP accumulation as % max effect of acetylcholin, iperoxo log [M] 3-12, 0.1µM LY2119620): 12.3%
- Emax ([1]; read-out: IP accumulation as % max effect of acetylcholin, iperoxo log [M] 3-12, 1µM LY2119620): 35.6%
- Emax ([1]; read-out: IP accumulation as % max effect of acetylcholin, iperoxo log [M] 3-12, 100µM LY2119620): 80.3%
- Emax ([1]; read-out: IP accumulation as % max effect of acetylcholin, iperoxo log [M] -6, 0.1µM LY2119620): 108%
- Emax ([1]; read-out: IP accumulation as % max effect of acetylcholin, iperoxo log [M] -6, 1µM LY2119620): 101%
- Emax ([1]; read-out: IP accumulation as % max effect of acetylcholin, iperoxo log [M] -6, 3µM LY2119620): 101%
- Emax ([1]; read-out: IP accumulation as % max effect of acetylcholin, iperoxo log [M] -6, 10µM LY2119620): 104%
- Emax ([1]; read-out: IP accumulation as % max effect of acetylcholin, iperoxo log [M] -6, 30µM LY2119620): 97%
- Emax ([1]; read-out: IP accumulation as % max effect of acetylcholin, iperoxo log [M] -6, 100µM LY2119620): 104%
- Emax ([1]; read-out: IP accumulation as % max effect of acetylcholin, iperoxo log [M] -6, no LY2119620): 102%
- Emax ([1]; read-out: IP accumulation as % max effect of acetylcholin, iperoxo log [M] -7, 0.1µM LY2119620): 104%
- Emax ([1]; read-out: IP accumulation as % max effect of acetylcholin, iperoxo log [M] -7, 1µM LY2119620): 104%
- Emax ([1]; read-out: IP accumulation as % max effect of acetylcholin, iperoxo log [M] -7, 3µM LY2119620): 98.3%
- Emax ([1]; read-out: IP accumulation as % max effect of acetylcholin, iperoxo log [M] -7, 10µM LY2119620): 101%
- Emax ([1]; read-out: IP accumulation as % max effect of acetylcholin, iperoxo log [M] -7, 100µM LY2119620): 102%
- Emax ([1]; read-out: IP accumulation as % max effect of acetylcholin, iperoxo log [M] -7, no LY2119620): 107%
- Emax ([1]; read-out: IP accumulation as % max effect of acetylcholin, iperoxo log [M] -8, 0.1µM LY2119620): 113%
- Emax ([1]; read-out: IP accumulation as % max effect of acetylcholin, iperoxo log [M] -8, 3µM LY2119620): 106%
- Emax ([1]; read-out: IP accumulation as % max effect of acetylcholin, iperoxo log [M] -8, 10µM LY2119620): 102%
- Emax ([1]; read-out: IP accumulation as % max effect of acetylcholin, iperoxo log [M] -8, no LY2119620): 112%
- Emax ([1]; read-out: IP accumulation as % max effect of acetylcholin, iperoxo log [M] -9, 1µM LY2119620): 108%
- Emax ([1]; read-out: IP accumulation as % max effect of acetylcholin, iperoxo log [M] -9, 10µM LY2119620): 106%
- Emax ([1]; read-out: IP accumulation as % max effect of acetylcholin, iperoxo log [M] -9, 100µM LY2119620): 108%
- Emax ([1]; read-out: IP accumulation as % max effect of acetylcholin, iperoxo log [M] -10, 3µM LY2119620): 100%
- Emax ([1]; read-out: IP accumulation as % max effect of acetylcholin, iperoxo log [M] -10, 10µM LY2119620): 101%
- Emax ([1]; read-out: IP accumulation as % max effect of acetylcholin, iperoxo log [M] -12, 100µM LY2119620): 94.6%
- Emax ([1]; read-out: IP accumulation as % max effect of acetylcholin, iperoxo log [M] -14, 0.1µM LY2119620): 18.7%
- Emax ([1]; read-out: IP accumulation as % max effect of acetylcholin, iperoxo log [M] -14, 30µM LY2119620): 79.3%
- Emax ([1]; read-out: IP accumulation as % max effect of acetylcholin, iperoxo log [M] -14, 100µM LY2119620): 78.3%
- EC50 [2]: 350 ± 80 pM
- Emax ([2]; read-out: Emax in % of acetylcholin, arrestin recruitment by iperoxo, agonist + 0.1 µM LY): 168%
- Emax ([2]; read-out: Emax in % of acetylcholin, arrestin recruitment by iperoxo, agonist + 3 µM LY): 172%
- Emax ([2]; read-out: Emax in % of acetylcholin, arrestin recruitment by iperoxo, agonist + 30 µM LY): 170%
- Emax ([2]; read-out: Emax in % of acetylcholin, arrestin recruitment by iperoxo, agonist + 100 µM LY): 170%
- Emax ([2]; read-out: arrestin recruitment as % max effect of acetylcholin, iperoxo log [M] 3-6): 135%
- Emax ([2]; read-out: arrestin recruitment as % max effect of acetylcholin, iperoxo log [M] 3-7): 142%
- Emax ([2]; read-out: arrestin recruitment as % max effect of acetylcholin, iperoxo log [M] 3-8): 138%
- Emax ([2]; read-out: arrestin recruitment as % max effect of acetylcholin, iperoxo log [M] 3-8 + 1µM LY2119620): 150%
- Emax ([2]; read-out: arrestin recruitment as % max effect of acetylcholin, iperoxo log [M] 3-8 + 10µM LY2119620): 154%
- Emax ([2]; read-out: arrestin recruitment as % max effect of acetylcholin, iperoxo log [M] 3-8 + 30µM LY2119620): 168%
